Test system: cytochrome c; horse tuna and yeast
Assay: ES-MS study of non-covalent interactions of crown ethers with three types of cytochrome c (rank order)
Type: binding
Conditions: rank among the three crown ethers, all three cytochrome c types
Experimental: […]; horse tuna and yeast, utilizing the ES probe 50 and method of this invention.
More particularly, the experiments showing binding of crowns to cytochrome c were done by adding 1, 2, and 3 mol ratios to a 70 pmol/μL mixture of the three different cytochrome c's. The solutions were prepared with equal parts of methanol/water with 1% acetic acid. Typical sample conditions were, 95° C., 2 μL/min, 4000 VDC on the syringe, 170 VDC on the capillary tube, and 60 VDC on the skimmer.

Structure (SMILES)	relative tightness of binding to cytochrome c
c1ccc2c(c1)OCCOCCOc1ccccc1OCCOCCO2 [Dibenzo-18-Crown-6, dibenzo-18-crown-6]	binding the least tightly
C1CCC2OCCOCCOC3CCCCC3OCCOCCOC2C1 (centres unmarked) [Dicyclohexano-18-Crown-6, dicyclohexano-18-crown-6]	binding the most tightly
